Test results reported in paper PMC7411887, “New Paracyclophanylthiazoles with Anti-Leukemia Activity: Design, Synthesis, Molecular Docking, and Mechanistic Studies” (Molecules, 2020).

What was measured:
Assay in all cases: NCI single-dose screen (SRB)
Type in all cases: cell-based
CAKI-1 = details: Homo sapiens; Renal Cancer CAKI-1; 10^−5 M; read-out: Growth inhibition percentage
Description: (§1) The methodology of the NCI anticancer screening was described in detail elsewhere (http://www.dtp.nci.nih.gov). […] Tested compounds were added to the culture at a single concentration (10^−5 M) and the cultures were incubated for 48 h. End-point determinations were made with a protein binding dye, SRB. Results for each tested compound were reported as the percentage growth of the treated cells when compared to the untreated control cells. The percentage growth was evaluated spectrophotometrically versus controls not treated with test agents. All experiments were repeated three times (Table 1).
(§2) Briefly, the protocol was performed on 60 human tumor cell lines derived from different nine neoplastic diseases. […] If the results obtained met selection criteria, then the compound was tested again on all 60 cell lines in 5× 10-fold dilutions with the top dose being 10^−4 M or 150 μg/mL. Detailed methods are described in the Supplementary Materials related to this article.
(§3) on their site (http://www.dtp.nci.nih.gov). But briefly, the protocol performed at sixty human
(§4) National Cancer Institute, Bethesda, USA. If the results obtained meet selection criteria, then the
(§5) 10-4 molar or 150 μg/mL. […]

HOP-62 = details: Homo sapiens; Non-Small-Cell Lung Cancer HOP-62; 10^−5 M; read-out: Growth inhibition percentage
Description: as §1, §2, §3, §4, §5

T-47D = details: Homo sapiens, T47D; Breast Cancer T-47D; 10^−5 M; read-out: Growth inhibition percentage
Description: as §1, §2, §3, §4, §5

NCI-H460 = details: Homo sapiens; Non-Small-Cell Lung Cancer NCI-H460; 10^−5 M; read-out: Growth inhibition percentage
Description: as §1, §2, §3, §4, §5

SK-MEL-2 = details: Homo sapiens; Melanoma SK-MEL-2; 10^−5 M; read-out: Growth inhibition percentage
Description: as §1, §2, §3, §4, §5

SK-OV-3 = details: Homo sapiens; Ovarian Cancer SK-OV-3; 10^−5 M; read-out: Growth inhibition percentage
Description: as §1, §2, §3, §4, §5

OVCAR-8 = details: Homo sapiens; Ovarian Cancer OVCAR-8; 10^−5 M; read-out: Growth inhibition percentage
Description: as §1, §2, §3, §4, §5

SR = details: Homo sapiens; Leukemia SR; 10^−5 M; read-out: Growth inhibition percentage
Description: as §1, §2, §3, §4, §5

NCI-H322M = details: Homo sapiens; Non-Small-Cell Lung Cancer NCI-H322M; 10^−5 M; read-out: Growth inhibition percentage
Description: as §1, §2, §3, §4, §5

MDA-MB-435 = details: Homo sapiens; Melanoma MDA-MB-435; 10^−5 M; read-out: Growth inhibition percentage
Description: as §1, §2, §3, §4, §5

LOX IMVI = details: Homo sapiens; Melanoma LOX IMVI; 10^−5 M; read-out: Growth inhibition percentage
Description: as §1, §2, §3, §4, §5

SF-539 = details: Homo sapiens; CNS Cancer SF-539; 10^−5 M; read-out: Growth inhibition percentage
Description: as §1, §2, §3, §4, §5

HCC-2998 = details: Homo sapiens; Colon Cancer HCC-2998; 10^−5 M; read-out: Growth inhibition percentage
Description: as §1, §2, §3, §4, §5

TK-10 = details: Homo sapiens; Renal Cancer TK-10; 10^−5 M; read-out: Growth inhibition percentage
Description: as §1, §2, §3, §4, §5

KM12 = details: Homo sapiens; Colon Cancer KM12; 10^−5 M; read-out: Growth inhibition percentage
Description: as §1, §2, §3, §4, §5

BT-549 = details: Homo sapiens; Breast Cancer BT-549; 10^−5 M; read-out: Growth inhibition percentage
Description: as §1, §2, §3, §4, §5

OVCAR-3 = details: Homo sapiens; Ovarian Cancer OVCAR-3; 10^−5 M; read-out: Growth inhibition percentage
Description: as §1, §2, §3, §4, §5

OVCAR-5 = details: Homo sapiens; Ovarian Cancer OVCAR-5; 10^−5 M; read-out: Growth inhibition percentage
Description: as §1, §2, §3, §4, §5

SK-MEL-28 = details: Homo sapiens; Melanoma SK-MEL-28; 10^−5 M; read-out: Growth inhibition percentage
Description: as §1, §2, §3, §4, §5

MDA-MB-468 = details: Homo sapiens; Breast Cancer MDA-MB-468; 10^−5 M; read-out: Growth inhibition percentage
Description: as §1, §2, §3, §4, §5

EKVX = details: Homo sapiens; Non-Small-Cell Lung Cancer EKVX; 10^−5 M; read-out: Growth inhibition percentage
Description: as §1, §2, §3, §4, §5

HCT-15 = details: Homo sapiens; Colon Cancer HCT-15; 10^−5 M; read-out: Growth inhibition percentage
Description: as §1, §2, §3, §4, §5

NCI-H226 = details: Homo sapiens; Non-Small-Cell Lung Cancer NCI-H226; 10^−5 M; read-out: Growth inhibition percentage
Description: as §1, §2, §3, §4, §5

A549/ATCC = details: Homo sapiens; Non-Small-Cell Lung Cancer A549/ATCC; 10^−5 M; read-out: Growth inhibition percentage
Description: as §1, §2, §3, §4, §5

MDA-MB-231/ATCC = details: Homo sapiens; Breast Cancer MDA-MB-231/ATCC; 10^−5 M; read-out: Growth inhibition percentage
Description: as §1, §2, §3, §4, §5

NCI-H522 = details: Homo sapiens; Non-Small-Cell Lung Cancer NCI-H522; 10^−5 M; read-out: Growth inhibition percentage
Description: as §1, §2, §3, §4, §5

A498 = details: Homo sapiens; Renal Cancer A498; 10^−5 M; read-out: Growth inhibition percentage
Description: as §1, §2, §3, §4, §5

MALME-3M = details: Homo sapiens; Melanoma MALME-3M; 10^−5 M; read-out: Growth inhibition percentage
Description: as §1, §2, §3, §4, §5

SN12C = details: Homo sapiens; Renal Cancer SN12C; 10^−5 M; read-out: Growth inhibition percentage
Description: as §1, §2, §3, §4, §5

Compound	inhibition at 10 µM (CAKI-1)	inhibition at 10 µM (HOP-62)	inhibition at 10 µM (T-47D)	inhibition at 10 µM (NCI-H460)	inhibition at 10 µM (SK-MEL-2)	inhibition at 10 µM (SK-OV-3)	inhibition at 10 µM (OVCAR-8)	inhibition at 10 µM (SR)	inhibition at 10 µM (NCI-H322M)	inhibition at 10 µM (MDA-MB-435)	inhibition at 10 µM (LOX IMVI)	inhibition at 10 µM (SF-539)	inhibition at 10 µM (HCC-2998)	inhibition at 10 µM (TK-10)	inhibition at 10 µM (KM12)	inhibition at 10 µM (BT-549)	inhibition at 10 µM (OVCAR-3)	inhibition at 10 µM (OVCAR-5)	inhibition at 10 µM (SK-MEL-28)	inhibition at 10 µM (MDA-MB-468)	further results
COC(=O)C=C1SC(=NNC(=O)c2cc3ccc2CCc2ccc(cc2)CC3)N(c2ccccc2)C1=O [Compound 3a]	94.7%	97%	138%	39.4%	13%	0%	59.3%	116%	31.5%	10.4%	128%	122%	96.4%	84.8%	91.5%	64.5%	106%	51.8%	17.5%	100%	inhibition at 10 µM (EKVX): 41%; inhibition at 10 µM (HCT-15): 99.7%; inhibition at 10 µM (NCI-H226): 26.2%; inhibition at 10 µM (A549/ATCC): 30.9%; inhibition at 10 µM (MDA-MB-231/ATCC): 67.5%; inhibition at 10 µM (NCI-H522): 58.5%; inhibition at 10 µM (A498): 50.8%; inhibition at 10 µM (MALME-3M): 21.2%; inhibition at 10 µM (SN12C): 77.5%
COC(=O)C=C1SC(=NNC(=O)c2cc3ccc2CCc2ccc(cc2)CC3)N(Cc2ccccc2)C1=O [Compound 3b]	84.4%	22.8%	106%	6.29%	14.4%	0%	28%	115%	6.7%	8.44%	93.8%	56.7%	20.5%	4.53%	34.9%	89.7%	79.7%	34.6%	0%	78.9%	inhibition at 10 µM (EKVX): 22.3%; inhibition at 10 µM (HCT-15): 72.2%; inhibition at 10 µM (NCI-H226): 35.2%; inhibition at 10 µM (A549/ATCC): 22.9%; inhibition at 10 µM (MDA-MB-231/ATCC): 43.2%; inhibition at 10 µM (NCI-H522): 84.1%; inhibition at 10 µM (A498): 53.9%; inhibition at 10 µM (MALME-3M): 11.6%; inhibition at 10 µM (SN12C): 38.8%
COC(=O)C=C1SC(=Nc2cccnc2)N(NC(=O)c2cc3ccc2CCc2ccc(cc2)CC3)C1=O [Compound 3c, Methyl (E)-2-((E)-3-[2.2]paracyclophanyl)amido-4-oxo-2-(pyridin-3-ylimino)-thiazolidin-5-ylidene)acetate]	4.78%	4%	31.1%	0.75%	0%	0%	1.51%	74.2%	1.72%	0%	9.78%	11.6%	0%	0%	7.32%	18.4%	4.51%	0.61%	0.86%	18%	inhibition at 10 µM (EKVX): 2.61%; inhibition at 10 µM (HCT-15): 11.8%; inhibition at 10 µM (NCI-H226): 7.48%; inhibition at 10 µM (A549/ATCC): 2.04%; inhibition at 10 µM (MDA-MB-231/ATCC): 10.6%; inhibition at 10 µM (NCI-H522): 17.7%; inhibition at 10 µM (A498): 3.59%; inhibition at 10 µM (MALME-3M): 0%; inhibition at 10 µM (SN12C): 8.87%
C=CCN1C(=O)C(=CC(=O)OC)SC1=NNC(=O)c1cc2ccc1CCc1ccc(cc1)CC2 [Compound 3d]	5.23%	0%	25%	0%	2.7%	0%	11.8%	98.2%	2.94%	0%	21.2%	0.33%	0%	0%	18.4%	38.3%	13.6%	3.9%	0%	23.7%	inhibition at 10 µM (EKVX): 9.16%; inhibition at 10 µM (HCT-15): 33.1%; inhibition at 10 µM (NCI-H226): 12.4%; inhibition at 10 µM (A549/ATCC): 5.2%; inhibition at 10 µM (MDA-MB-231/ATCC): 2.27%; inhibition at 10 µM (NCI-H522): 39.2%; inhibition at 10 µM (A498): 12.1%; inhibition at 10 µM (MALME-3M): 7.56%; inhibition at 10 µM (SN12C): 13.1%
CCN1C(=O)C(=CC(=O)OC)SC1=NNC(=O)c1cc2ccc1CCc1ccc(cc1)CC2 [Compound 3e]	0%	0%	5.77%	0%	5.78%	0%	7.42%	113%	7.75%	0.72%	26.5%	9.82%	0%	6.5%	15%	7.73%	7.09%	0%	0%	12.7%	inhibition at 10 µM (EKVX): 6.44%; inhibition at 10 µM (HCT-15): 31.6%; inhibition at 10 µM (NCI-H226): 7.31%; inhibition at 10 µM (A549/ATCC): 3%; inhibition at 10 µM (MDA-MB-231/ATCC): 3.95%; inhibition at 10 µM (NCI-H522): 40.3%; inhibition at 10 µM (A498): 6.63%; inhibition at 10 µM (MALME-3M): 8.06%; inhibition at 10 µM (SN12C): 4.97%
COC(=O)/C=C1/S/C(=N/NC(=O)c2cc3ccc2CCc2ccc(cc2)CC3)N(C2CC2)C1=O [Compound 3f]	24.5%	0%	23%	1.98%	13.5%	0%	13.3%	39.1%	4.43%	8.06%	9.41%	0%	0%	0%	1.32%	26.8%	15.9%	0%	10.3%	29.7%	inhibition at 10 µM (EKVX): 12.2%; inhibition at 10 µM (HCT-15): 29.4%; inhibition at 10 µM (NCI-H226): 9.41%; inhibition at 10 µM (A549/ATCC): 11.4%; inhibition at 10 µM (MDA-MB-231/ATCC): 3.5%; inhibition at 10 µM (NCI-H522): 30%; inhibition at 10 µM (A498): 3.39%; inhibition at 10 µM (MALME-3M): 11.3%; inhibition at 10 µM (SN12C): 17.1%
